From publication PMC7662280 (Molecules, 2020) come the findings set out here.

The nature of series [1]: Inhibition of linoleic acid peroxidation induced by AAPH. The following applies: anti-lipid peroxidation of linoleic acid, 100 μM.
Series [2] has as its target T1, bovine COX-2 (Bos taurus, UniProt O62698).
T1 sequence (O62698 18-604): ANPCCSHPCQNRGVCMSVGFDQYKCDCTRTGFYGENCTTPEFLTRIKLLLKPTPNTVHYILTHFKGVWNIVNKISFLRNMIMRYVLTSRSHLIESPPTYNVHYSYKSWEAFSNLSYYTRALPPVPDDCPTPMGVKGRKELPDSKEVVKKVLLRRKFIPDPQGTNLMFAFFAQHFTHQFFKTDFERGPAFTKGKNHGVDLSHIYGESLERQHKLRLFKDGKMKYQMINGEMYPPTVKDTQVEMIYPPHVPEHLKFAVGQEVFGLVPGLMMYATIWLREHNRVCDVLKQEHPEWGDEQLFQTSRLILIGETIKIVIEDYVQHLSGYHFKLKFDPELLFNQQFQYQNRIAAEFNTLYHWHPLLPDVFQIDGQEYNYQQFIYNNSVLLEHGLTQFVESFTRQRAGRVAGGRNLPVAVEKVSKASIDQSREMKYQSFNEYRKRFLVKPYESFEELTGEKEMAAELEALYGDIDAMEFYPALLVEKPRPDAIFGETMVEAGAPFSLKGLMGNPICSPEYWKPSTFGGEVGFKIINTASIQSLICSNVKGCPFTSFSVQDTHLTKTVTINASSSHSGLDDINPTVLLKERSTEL
As to the kind of experiment: biochemical. It is filed as biochemical.

Series [3] is described as follows: Experimental lipophilicity as RM values by RPTLC. It is filed as physicochemical. Conditions: silica gel impregnated with liquid paraffin, methanol/water 77/23, 24 °C.
Series [4] has as its target T2, soybean lipoxygenase (isozyme LOX-1) (Glycine max, UniProt P08170).
T2 construct: purchased Sigma Chemical, Co. (St. Louis, MO, USA)
T2 sequence (P08170 1-839): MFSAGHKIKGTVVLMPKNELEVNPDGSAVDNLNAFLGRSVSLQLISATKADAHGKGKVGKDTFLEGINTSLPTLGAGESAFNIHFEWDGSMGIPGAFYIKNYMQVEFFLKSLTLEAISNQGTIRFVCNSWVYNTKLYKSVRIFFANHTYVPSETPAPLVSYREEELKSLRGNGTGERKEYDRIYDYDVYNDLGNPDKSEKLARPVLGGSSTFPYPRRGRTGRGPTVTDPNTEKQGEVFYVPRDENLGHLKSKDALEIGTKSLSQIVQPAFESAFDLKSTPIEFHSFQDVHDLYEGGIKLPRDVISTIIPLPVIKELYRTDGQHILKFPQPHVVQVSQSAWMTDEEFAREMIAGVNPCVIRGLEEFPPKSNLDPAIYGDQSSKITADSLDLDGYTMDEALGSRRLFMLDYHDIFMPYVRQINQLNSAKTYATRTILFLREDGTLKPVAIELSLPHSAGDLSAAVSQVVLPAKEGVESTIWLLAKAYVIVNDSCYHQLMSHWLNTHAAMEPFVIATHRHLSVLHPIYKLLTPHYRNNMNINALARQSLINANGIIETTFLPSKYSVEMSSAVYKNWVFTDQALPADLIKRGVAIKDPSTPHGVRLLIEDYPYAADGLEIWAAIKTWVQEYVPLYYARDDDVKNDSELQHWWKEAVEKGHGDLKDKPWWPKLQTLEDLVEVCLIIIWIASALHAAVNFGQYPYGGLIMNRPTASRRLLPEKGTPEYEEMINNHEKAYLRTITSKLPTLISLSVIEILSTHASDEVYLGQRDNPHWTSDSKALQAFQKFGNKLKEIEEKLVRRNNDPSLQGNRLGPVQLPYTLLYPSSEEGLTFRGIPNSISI
As to the kind of experiment: Soybean lipoxygenase inhibition study. Conditions: soybean lipoxygenase, sodium linoleate substrate; read-out: LOX IC50 (μM) ± SEM. The format is biochemical.

Series [5] has as its target T3, eel AChE (Electrophorus electricus, UniProt O42275).
T3 construct: purchased Sigma-Aldrich Type VI-S
As to the kind of experiment: biochemical. Conditions: acetylthiocholine substrate, read-out: AChE IC50 (μM) ± SEM.

T3 sequence (O42275 24-633): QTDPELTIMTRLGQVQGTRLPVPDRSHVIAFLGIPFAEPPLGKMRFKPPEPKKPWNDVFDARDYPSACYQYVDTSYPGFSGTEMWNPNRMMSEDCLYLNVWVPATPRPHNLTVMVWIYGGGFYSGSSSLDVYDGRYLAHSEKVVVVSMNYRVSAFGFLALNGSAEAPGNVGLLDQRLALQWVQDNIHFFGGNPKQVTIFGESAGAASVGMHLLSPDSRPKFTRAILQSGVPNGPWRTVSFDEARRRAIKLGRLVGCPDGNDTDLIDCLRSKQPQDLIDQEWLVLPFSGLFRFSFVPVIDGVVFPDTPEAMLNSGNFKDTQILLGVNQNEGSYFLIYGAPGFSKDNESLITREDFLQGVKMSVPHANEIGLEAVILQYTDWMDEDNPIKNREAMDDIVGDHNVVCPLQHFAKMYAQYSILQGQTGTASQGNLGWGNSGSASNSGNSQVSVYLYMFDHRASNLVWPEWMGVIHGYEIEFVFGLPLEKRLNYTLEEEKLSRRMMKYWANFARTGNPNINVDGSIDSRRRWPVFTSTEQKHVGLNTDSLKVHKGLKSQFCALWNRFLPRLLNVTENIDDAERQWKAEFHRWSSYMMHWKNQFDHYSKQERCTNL

Take `O=C(O)/C=C/c1ccc(O)c(O)c1` [2c, caffeic acid]: the “AAPH Inhibition (%, at 100 μΜ)” value in series [1] worked out at 80 ± 2.2%. Besides, in series [2] (bovine COX-2, 100 μM, n.a. = no activity under the experimental conditions), the “COX-2 (% Inhibition at 100 μM) ± SEM” value is listed as “presented anti-COX-2 activity”. The IC50 (commonly the concentration at which inhibition is half-maximal) in series [2] (bovine COX-2, read-out: COX-2 IC50 (μM) ± SEM) amounted to 57.5 µM.

Turning to `O=C1/C(=C/c2cccs2)CN(C(=O)/C=C/c2cccc3ccccc23)C/C1=C\c1cccs1` [3e, (3E,5E)-1-((E)-3-(naphthalen-1-yl)acryloyl)-3,5-bis(thiophen-2-ylmethylene)piperidin-4-one], the “RM ± S.D.” value in series [3] was 0.514 ± 0.039. The IC50 turned out to be 52 µM in series [4] and 70 µM in series [5]. In addition, the “AAPH Inhibition (%, at 100 μΜ)” value in series [1] is on record as 91 ± 2.5%. Besides, the inhibition (as a rule, the share of the control response that was lost under treatment) at 100 µM in series [2] (bovine COX-2, 100 μM, n.a. = no activity under the experimental conditions, read-out: COX-2 (% Inhibition at 100 μM) ± SEM) amounted to 19%.
